Data from patent US4431665A, “Acylated laidlomycin derivatives” (priority 1980, dated 1984).
Read-outs that look alike come from different tables or passages of the source.

Columns and labels:
[1] = tested on: ruminants; conditions: in words; U.S. Pat. No. 3,794,732; cited from earlier work
[2] = tested on: Gram-positive bacteria; conditions: in words; J. Antibiotics 1974, 1976; cited from earlier work
[3] = tested on: rumen contents (lactic acid accumulation); assay: Inhibition of lactic acid accumulation, second batch culture fermentation of rumen contents with glucose; type: cell-based, bovine (rumen fistulated); conditions: for Accumulation of Lactic Acid - % of Control: Table 4, 360 min; for activity at 2.5 µg/mL: 2.5 μg/ml; for activity at 10 µg/mL: 10 μg/ml; for activity at 0.62 µg/mL: .62 μg/ml
Experimental: Inhibition of lactic acid accumulation is determined using a second batch culture fermentation system. Rumen contents from a rumen fistulated bovine are mixed with an equal amount of buffer which contains a 150 mM concentration of glucose. Following 6 hours of incubation at 39° C., lactic acid produced in the fermentation is analyzed by a specific enzymatic assay. The concentration of lactic acid in the fermentation broth is quantified by the increase in absorbance of light at […] when nicotinamide adenine dinucleotide is reduced by lactic acid with the aid of lactate dehydrogenase. […]
(§1) The procedure of Example 2 was followed to compare laidlomycin (L.), sodium L. (Na L.), L.-propionate (L.C3), L. butyrate (L.C4), L. isobutyrate (L. isoC4), L. pentanoate (L.C5) and L. hexanoate (L.C6).
(§2) The procedure of Example 2 was followed to compare the activities of L. heptanoate (L. C7), L. octanoate (L. C8), L. decanoate (L. C10) and L. dodecanoate (L. C12) in increasing propionic acid production and inhibiting lactic acid production.
(§3) The procedure of Example 2 was followed to compare the activities of laidlomycin (L.) acetate (L. C2), L. pentanoate (L. C5), L. stearate (L. C18), L. cyclobutylcarboxylate, L. cyclopentylcarboxylate, L. cyclohexylcarboxylate and L. cyclopropylcarboxylate.

[4] = tested on: rumen microorganisms (mixed microbial population of rumen contents); assay: Enhancement of intraruminal propionic acid production, batch culture fermentation of rumen contents; type: cell-based, bovine (rumen-fistulated); conditions: for % Propionic Acid: 9 h, 39° C.
Experimental: Enhancement of intraruminal propionic acid production is determined using a batch culture fermentation system. Rumen contents from a rumen-fistulated bovine are mixed with an equal amount of buffer which contains mineral, energy and nitrogen sources required for continued growth and metabolism of the mixed microbial population. Aliquots of this inoculum then are transferred to incubation vessels containing appropriate amounts of sodium laidlomycin (Na L.) (see Example 1A), and L. butyrate (L.C4) (prepared according to the procedure of Example 1A). After 9 hours of incubation at 39° C., concentrations of individual volatile fatty acids in each incubation vessel are determined by gas-liquid chromatography. The net production of each individual volatile fatty acid (acetic [AA], propionic [PA] and butyric [BA]) is calculated as the difference between the concentration after incubation and the concentration before incubation. The molar percentage of propionic acid produced is calculated from the following equation: [formula]
The comparative activities of sodium laidlomycin (Na L.) and the laidlomycin butyrate upon propionic acid and lactic acid production are set forth in Tables 1 and 2 where the concentration is in micrograms per ml (μg/ml).
as §1, §2, §3

[5] = Acute oral toxicity (mortality, LD50) in mice; type: in vivo, mouse (Swiss-Webster); conditions: mouse, in vivo, male Swiss-Webster mice, 21 days
Experimental: (§4) Five groups of male, Swiss-Webster mice (Simonsen), each mouse weighing about 25 grams, were dosed orally with 0.25 ml of a solution of laidlomycin butyrate in sesame oil. A control group of six mice received only sesame oil. The mice were observed daily for mortality for 21 days. From this information the LD50 as calculated to be more than 200 mg/kg.

[6] = tested on: male, Swiss-Webster mice; assay: Acute oral toxicity (mortality, LD50) in mice; type: in vivo, mouse (Swiss-Webster); conditions: sesame oil, 21 days
Experimental: as §4

[7] = Bos taurus, 6 h, read-out: Accumulation of Lactic Acid - % of Control, Table 4, 1.25 μg/ml, 6 h, 39° C.
[8] = Bos taurus, 6 h, read-out: Accumulation of Lactic Acid - % of Control, Table 4, .31 μg/ml, 6 h, 39° C.
[9] = Table 3, 1.25 μg/ml, 0 μg/ml: 28.5
[10] = Table 3, 5 μg/ml, 0 μg/ml: 28.5
[11] = Table 3, 20 μg/ml, 0 μg/ml: 28.5
[12] = Table 3, .31 μg/ml, 0 μg/ml: 28.5
[13] = Bos taurus, 6 h, read-out: Lactic Acid Accumulation (% of Control), Table 2, 1.25 μg/ml, 6 h, 39° C.
[14] = Bos taurus, 6 h, read-out: Lactic Acid Accumulation (% of Control), Table 2, 6 h, 39° C.
[15] = Bos taurus, 6 h, read-out: Lactic Acid Accumulation (% of Control), Table 2, 5 μg/ml, 6 h, 39° C.
[16] = Bos taurus, 6 h, read-out: Lactic Acid Accumulation (% of Control), Table 2, .31 μg/ml, 6 h, 39° C.
[17] = Table 1, 1.25 μg/ml, 0 μg/ml: 35.4
[18] = Table 1, 2.5 μg/ml, 0 μg/ml: 35.4
[19] = Table 1, 5 μg/ml, 0 μg/ml: 35.4
[20] = Table 1, 10 μg/ml, 0 μg/ml: 35.4
[21] = Table 1, .31 μg/ml, 0 μg/ml: 35.4
[22] = Table 1, .62 μg/ml, 0 μg/ml: 35.4
[23] = in words, compared with laidlomycin or its sodium salt

Row | Compound | activity at 1.25 µg/mL [3, 7] | activity at 0.31 µg/mL [3, 8] | Accumulation of Lactic Acid - % of Control ([3]; 5 μg/ml, 6 h, 39° C.) | Accumulation of Lactic Acid - % of Control ([3]; 20 μg/ml, 6 h, 39° C.) | % Propionic Acid [4, 9] | % Propionic Acid [4, 10] | % Propionic Acid [4, 11] | % Propionic Acid [4, 12] | activity at 1.25 µg/mL [3, 13] | activity at 2.5 µg/mL [3, 14] | activity at 5 µg/mL [3, 15] | activity at 10 µg/mL [3, 14] | activity at 0.31 µg/mL [3, 16] | activity at 0.62 µg/mL [3, 14] | % Propionic Acid [4, 17] | % Propionic Acid [4, 18] | % Propionic Acid [4, 19] | % Propionic Acid [4, 20] | % Propionic Acid [4, 21] | % Propionic Acid [4, 22] | other results
1 | monensin |  |  |  |  |  |  |  |  |  |  |  |  |  |  |  |  |  |  |  |  | increasing feed utilization in ruminants [1]: useful in increasing feed utilization in ruminants
2 | CCC(=O)OC(C(C)C(=O)O)C(C)C1OC2(CCC(C)(C3CCC(C)(C4OC(C5OC(O)(CO)C(C)CC5C)CC4C)O3)O2)CC(O)C1C (stereo not shown) [L., laidlomycin] | 83% | 121% | 20 % of Control | 16 % of Control | 36.0% | 39.8% | 43.2% | 32.1% |  |  |  |  |  |  |  |  |  |  |  |  | growth inhibition of Gram-positive bacteria [2]: inhibits the growth of some Gram-positive bacteria
3 | CCC(=O)OC(C(C)C(=O)O)C(C)C1OC2(CCC(C)(C3CCC(C)(C4OC(C5OC(O)(CO)C(C)CC5C)CC4C)O3)O2)CC(O)C1C (stereo not shown) [Na L., sodium laidlomycin, reference compound] |  |  | 57 % of Control | 40 % of Control | 34.1% | 34.6% | 36.8% | 32.0% | 125% | 112% | 93% | 67% | 135% | 132% | 41.3% | 43.2% | 44.4% | 45.4% | 40.2% | 40.8% | Accumulation of Lactic Acid - % of Control ([3]; 1.25 μg/ml, 6 h, 39° C.): 94 % of Control; Accumulation of Lactic Acid - % of Control ([3]; .31 μg/ml, 6 h, 39° C.): 114 % of Control
4 | CCCC(=O)OCC1(O)OC(C2CC(C)C(C3(C)CCC(C4(C)CCC5(CC(O)C(C)C(C(C)C(OC(=O)CC)C(C)C(=O)O)O5)O4)O3)O2)C(C)CC1C (stereo not shown) [L. C4, monobutyrate of laidlomycin] | 13% | 38% |  |  | 39.9% | 43.7% | 46.9% | 35.5% | 8% | 11% | 13% | 13% | 71% | 30% | 46.1% | 52.2% | 49.3% | 53.9% | 43.6% | 46.4% | LD50 at 504 h [5]: > 200 mg/kg; No. Deaths/No. Mice ([6]; 12.5 mg/kg): 0/6; No. Deaths/No. Mice ([6]; 25 mg/kg): 0/6; No. Deaths/No. Mice ([6]; 50 mg/kg): 0/6; No. Deaths/No. Mice ([6]; 100 mg/kg): 0/6; No. Deaths/No. Mice ([6]; 200 mg/kg): 0/6; activity at 5 µg/mL ([3]; Bos taurus, 6 h, read-out: Accumulation of Lactic Acid - % of Control, Table 4, 5 μg/ml, 6 h, 39° C.): 15%; activity at 20 µg/mL ([3]; Bos taurus, 6 h, read-out: Accumulation of Lactic Acid - % of Control, Table 4, 20 μg/ml, 6 h, 39° C.): 19%; inhibition of lactic acid production/accumulation [3, 23]: surprisingly increased potency; enhancement of propionic acid production (molar percentage of propionate) [4, 23]: surprisingly increased potency
